Laboratory results: patent US10273248B2, “Glucose uptake inhibitors” (Kadmon Corporation LLC, priority 2015, dated 2019)
Where two headings read alike, the source gives them in different places.

Assays:
HT1080 cells [1] = type: cell-based
Protocol: (§1) Cell Proliferation and Cell Death Assays:
(§2) HT1080 cells (or other cell types) were plated in 96-well format at cell densities suitable for culture from 24-72 hrs. For IC50 of cellular proliferation, cells were fixed with TCA and stained with SRB to quantify relative viability. At the end of the specified assay time, the percentage of drug-treated cells was calculated relative to the DMSO control. For cell death assays, viability was assessed relative to the 0-hour timepoint

HT1080 cells [2] = experiment: Cell proliferation assay, single agents and combinations, HT1080; type: cell-based; conditions: Homo sapiens; HT-1080 cells; read-out: IC50 as a single agent
Protocol: as §1, §2

Jurkat = experiment: Proliferation assay, Jurkat; type: cell-based; conditions: Homo sapiens, 72 hrs
Protocol: (§3) As previously discussed, glucose is the major energy source for cancer cells and, compared to normal cells, cancer cells rely on increased rates of glycolysis for survival and cell growth. […] Table 2 summarizes these findings for multiple compounds:
as §1, §2

MOLT-4 = experiment: Proliferation assay, MOLT-4; type: cell-based; conditions: Homo sapiens, 72 hrs
Protocol: as §3, §1, §2

[3] = tested on: glycolysis in HT1080 cells; experiment: Glycolysis assay: oligomycin plus compound, cellular ATP by Cell Titer Glo; type: cell-based; conditions: Homo sapiens, HT-1080, 1 h, 10 μM oligomycin, one hour, class symbols
Summary of the method: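 Confluent HT1080 cells treated 1 h with compound plus 10 μM oligomycin to block mitochondrial ATP, so remaining ATP reflects glycolysis. Cellular ATP read by Cell Titer-Glo luminescence; IC50 derived from dose-response curves.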

[4] = tested on: MOG-induced experimental autoimmune encephalitis (EAE); experiment: Mouse prophylactic MOG-EAE model; type: in vivo; conditions: dosed orally day 3 to day 25, compared to vehicle control (FIG. 9)
Protocol: Mouse Prophylactic MOG-EAE Model:
Performed at Hooke laboratories. Briefly, mice were immunized with MOG peptide on day 0 and subsequently injected with pertussis toxin. Compounds were dosed orally beginning on day 3 continuing until day 25.

U937 = experiment: Proliferation assay, U937; type: cell-based; conditions: Homo sapiens, U-937; 72 hrs
Protocol: as §3, §1, §2

[5] = HT1080 cells, 10 μM Ex. 31 or 25 μM H2O2

IC50 (Jurkat)	IC50 (MOLT-4)	IC50 [3]	IC50 (U937)	SMILES	further results
0.397 µM		0.251 to 0.5 µM		CC(C)NC(=O)COc1cccc(-c2nc(Nc3ccc(-c4cn[nH]c4)cc3)c3ncn(C)c3n2)c1 [Example 5, 2-(3-(6-((4-(1H-pyrazol-4-yl)phenyl)amino)-9-methyl-9H-purin-2-yl)phenoxy)-N-isopropylacetamide]	
9.4 µM		0.501 to 1 µM		O=C(COc1cccc(-c2nc(Nc3ccc(-c4cn[nH]c4)cc3)c3occc3n2)c1)NC1CC1 [Example 21]	
0.162 µM		0.101 to 0.25 µM		O=C(COc1cccc(-c2nc(Nc3ccc(-c4cn[nH]c4)cc3)c3sccc3n2)c1)NC1CCC1 [Example 23]	
0.215 µM	0.417 µM	0.01 to 0.1 µM	0.234 µM	O=C(COc1cccc(-c2nc(Nc3ccc(-c4cn[nH]c4)cc3)c3sccc3n2)c1)NC1CCCC1 [Example 24]	
0.17 µM	0.264 µM	0.01 to 0.1 µM	0.123 µM	O=C(COc1cccc(-c2nc3c(c(Nc4ccc(-c5cn[nH]c5)cc4)n2)COC3)c1)NC1CCCC1 [Example 32]	

Second part, the molecule before the results:

SMILES	IC50 (Jurkat)	IC50 (MOLT-4)	IC50 [3]	IC50 (U937)	further results
CN(C)CC[C@H](CSc1ccccc1)Nc1ccc(S(=O)(=O)NC(=O)c2ccc(N3CCN(Cc4ccccc4-c4ccc(Cl)cc4)CC3)cc2)cc1[N+](=O)[O-] [ABT-737, reference compound]					cell death as single agents (HT1080 cells [1]; HT-1080 cells): neither Ex. 31 nor ABT-737 (10 M) caused cell death; IC50 (HT1080 cells [2]): ~8.5 µM
CC(C)NC(=O)COc1cccc(-c2nc3c(c(Nc4ccc(-c5cn[nH]c5)cc4)n2)COC3)c1 [Example 1, 2-(3-(4-((4-(1H-pyrazol-4-yl)phenyl)amino)-5,7-dihydrofuro[3,4-d]pyrimidin-2-yl)phenoxy)-N-isopropylacetamide]	0.63 µM	1.62 µM	0.01 to 0.1 µM		
CC(C)NC(=O)COc1cccc(-c2nc(Nc3ccc(-c4cn[nH]c4)cc3)c3sccc3n2)c1 [Example 7, 2-(3-(4-((4-(1H-pyrazol-4-yl)phenyl)amino)thieno[3,2-d]pyrimidin-2-yl)phenoxy)-N-isopropylacetamide]	0.5 µM	0.823 µM	0.01 to 0.1 µM	0.388 µM	onset and end clinical score [4]: either delayed the onset or lowered the end clinical score
O=C(COc1cccc(-c2nc3c(c(Nc4ccc(-c5cn[nH]c5)cc4)n2)COC3)c1)NC1CCC1 [Example 31]	0.293 µM	0.385 µM	0.01 to 0.1 µM	0.256 µM	cell death, combination with H2O2 (HT1080 cells [1]; HT1080 cells, 10 μM Ex. 31 + 25 μM H2O2 (FIG. 5B)): ~45%; cell death as single agents (HT1080 cells [1]; [5]): neither 10 μM Ex. 31 nor 25 μM H2O2 caused cell death; cell death as single agents (HT1080 cells [1]; HT-1080 cells): neither Ex. 31 nor ABT-737 (10 M) caused cell death; cell death, combination with ABT-737 (HT1080 cells [1]; HT-1080 cells, 72 hours, Ex. 31 + ABT-737 (FIG. 4B)): ~60%
OO [Example H2O2, H2O2, reference compound]					cell death as single agents (HT1080 cells [1]; [5]): neither 10 μM Ex. 31 nor 25 μM H2O2 caused cell death
